Data set [1] relates to HepG2. The data set can be described thus: (§1) Cytotoxicity against human HepG2 cells after 48 hrs by Celltiter-Glo assay. As to conditions: hepg2, 48 h. The data set is classed as cell-based. For orientation: In ATP-based viability assays light output follows the ATP content of the culture.
Data set [2] relates to Trypanosoma brucei brucei. The data set can be described thus: microbe, parasite or virus in culture. As to conditions: Lister 427, 70 h.
Description: Antitrypanosomal activity against bloodstream Trypanosoma brucei brucei Lister 427 after 70 hrs by resazurin assay
The test system of data set [3] is Trypanosoma brucei brucei. Description: Antitrypanosomal activity against bloodstream Trypanosoma brucei brucei Lister 427 assessed as decrease in number of cell at G1 phase after 18 hrs by PI staining based flow cytometer. The data set is classed as functional, organism-based. On the technique in general: In flow cytometry, cells or beads pass a laser one at a time.

Data set [4] deals with Trypanosoma brucei brucei. Description: Effect on sphingomylein level in Trypanosoma brucei brucei Lister 427 at 200 nM after 12 hrs by ES-MS analysis. The data set is classed as functional, organism-based.
Data set [5] has as its system Trypanosoma brucei brucei. Description: Decrease in phosphotidyl inositol phosphate level in Trypanosoma brucei brucei Lister 427 at 200 nM after 12 hrs by ES-MS analysis. The data set is classed as functional, organism-based.
Data set [6] in a line: Apparent permeability across artificial membrane after 3 hrs by HPLC analysis. The data set is classed as physicochemical.
In data set [7] the test system is Trypanosoma brucei brucei. The data set can be described thus: Effect on phosphotidyl inositol level in Trypanosoma brucei brucei Lister 427 at 200 nM after 12 hrs by ES-MS analysis. The data set is classed as functional, organism-based.
Data set [8] can be described thus: Lipophilicity, log D of the compound at pH 7.4 by HPLC analysis. The data set is classed as physicochemical. As to conditions: buffer.
For data set [9], the system named is Trypanosoma brucei brucei. The data set can be described thus: Inhibition of receptor-mediated endocytosis in Trypanosoma brucei brucei Lister 427 assessed as decrease in transferrin uptake at 2 X EC50 after 18 hrs. The data set is classed as functional, organism-based.
In data set [10] the test system is Trypanosoma brucei brucei. Description: Effect on phosphatidylcholine level in Trypanosoma brucei brucei Lister 427 at 200 nM after 12 hrs by ES-MS analysis. The data set is classed as functional, organism-based.
Data set [11] is described as follows: Solubility of compound in phosphate buffer at pH 7.4 after 1 hr. The data set is classed as physicochemical.
Data set [12] addresses T1, Phosphatidylinositol 4,5-bisphosphate 3-kinase catalytic subunit delta isoform (Homo sapiens, UniProt O00329).
T1 sequence (O00329 whole entry): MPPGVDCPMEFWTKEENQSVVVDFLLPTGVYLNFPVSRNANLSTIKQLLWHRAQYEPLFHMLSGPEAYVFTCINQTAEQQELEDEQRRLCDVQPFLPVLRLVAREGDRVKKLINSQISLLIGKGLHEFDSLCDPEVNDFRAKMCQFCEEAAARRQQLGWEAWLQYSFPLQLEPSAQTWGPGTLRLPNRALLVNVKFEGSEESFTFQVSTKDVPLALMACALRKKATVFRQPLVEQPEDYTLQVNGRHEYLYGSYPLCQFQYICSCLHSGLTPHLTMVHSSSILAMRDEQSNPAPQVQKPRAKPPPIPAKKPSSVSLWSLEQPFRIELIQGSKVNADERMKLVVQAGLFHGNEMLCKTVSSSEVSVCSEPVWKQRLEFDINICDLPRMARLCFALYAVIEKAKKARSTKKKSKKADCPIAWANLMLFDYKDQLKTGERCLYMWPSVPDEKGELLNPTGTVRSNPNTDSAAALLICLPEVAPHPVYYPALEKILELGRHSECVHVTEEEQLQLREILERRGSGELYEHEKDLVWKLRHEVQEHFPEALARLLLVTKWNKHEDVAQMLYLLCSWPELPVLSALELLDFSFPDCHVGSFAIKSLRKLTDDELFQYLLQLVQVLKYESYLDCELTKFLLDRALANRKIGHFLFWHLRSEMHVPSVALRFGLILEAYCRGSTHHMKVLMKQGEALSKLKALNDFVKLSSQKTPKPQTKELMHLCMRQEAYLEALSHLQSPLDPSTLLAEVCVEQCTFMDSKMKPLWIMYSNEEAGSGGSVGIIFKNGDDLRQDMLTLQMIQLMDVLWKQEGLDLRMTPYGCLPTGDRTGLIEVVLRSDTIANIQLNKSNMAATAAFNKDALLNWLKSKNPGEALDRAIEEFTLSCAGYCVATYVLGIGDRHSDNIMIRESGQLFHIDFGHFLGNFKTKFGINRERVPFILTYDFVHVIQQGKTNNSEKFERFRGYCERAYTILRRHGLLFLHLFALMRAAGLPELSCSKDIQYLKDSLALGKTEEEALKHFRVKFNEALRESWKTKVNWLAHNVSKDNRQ
Description: Inhibition of human PI3K-delta assessed as inhibition of […] after 1 hr by TR-FRET analysis. On the technique in general: In TR-FRET formats the signal depends on donor and acceptor labels being close together.

In data set [13] the target is Phosphatidylinositol 4,5-bisphosphate 3-kinase catalytic subunit alpha isoform (Homo sapiens, UniProt P42336). Description: Inhibition of human PI3K-alpha assessed as inhibition of […] after 1 hr by TR-FRET analysis.
A short description of data set [14]: as §1. The data set is classed as cell-based. As to conditions: HepG2 cells, read-out: TC50.
Data set [15] deals with Phosphatidylinositol 4,5-bisphosphate 3-kinase catalytic subunit beta isoform (Homo sapiens, UniProt P42338). The data set can be described thus: Inhibition of human PI3K-beta assessed as inhibition of […] after 1 hr by TR-FRET analysis.
The target in data set [16] is Serine/threonine-protein kinase mTOR (Homo sapiens, UniProt P42345). The data set can be described thus: Inhibition of human recombinant mTOR assessed as inhibition of 4EBP1 phosphorylation after 30 mins by TR-FRET analysis.
In data set [17] the target is Phosphatidylinositol 4,5-bisphosphate 3-kinase catalytic subunit gamma isoform (Homo sapiens, UniProt P48736). The data set can be described thus: Inhibition of human PI3K-gamma assessed as inhibition of […] after 1 hr by TR-FRET analysis.
The nature of data set [18]: in vitro. Conditions: human, HepG2 cells.
Description: Selectivity ratio TC50 for human HepG2 cells to EC50 for Trypanosoma brucei brucei Lister 427

Converted amounts (≈) assume the structure as drawn. The source made the active and inactive calls. The calls are words filed in the database; no cut-off is given here. A value given as a limit tells only on which side of the number the result lay.

Chain of Phosphatidylinositol 4,5-bisphosphate 3-kinase catalytic subunit gamma isoform (P48736 whole entry, canonical isoform): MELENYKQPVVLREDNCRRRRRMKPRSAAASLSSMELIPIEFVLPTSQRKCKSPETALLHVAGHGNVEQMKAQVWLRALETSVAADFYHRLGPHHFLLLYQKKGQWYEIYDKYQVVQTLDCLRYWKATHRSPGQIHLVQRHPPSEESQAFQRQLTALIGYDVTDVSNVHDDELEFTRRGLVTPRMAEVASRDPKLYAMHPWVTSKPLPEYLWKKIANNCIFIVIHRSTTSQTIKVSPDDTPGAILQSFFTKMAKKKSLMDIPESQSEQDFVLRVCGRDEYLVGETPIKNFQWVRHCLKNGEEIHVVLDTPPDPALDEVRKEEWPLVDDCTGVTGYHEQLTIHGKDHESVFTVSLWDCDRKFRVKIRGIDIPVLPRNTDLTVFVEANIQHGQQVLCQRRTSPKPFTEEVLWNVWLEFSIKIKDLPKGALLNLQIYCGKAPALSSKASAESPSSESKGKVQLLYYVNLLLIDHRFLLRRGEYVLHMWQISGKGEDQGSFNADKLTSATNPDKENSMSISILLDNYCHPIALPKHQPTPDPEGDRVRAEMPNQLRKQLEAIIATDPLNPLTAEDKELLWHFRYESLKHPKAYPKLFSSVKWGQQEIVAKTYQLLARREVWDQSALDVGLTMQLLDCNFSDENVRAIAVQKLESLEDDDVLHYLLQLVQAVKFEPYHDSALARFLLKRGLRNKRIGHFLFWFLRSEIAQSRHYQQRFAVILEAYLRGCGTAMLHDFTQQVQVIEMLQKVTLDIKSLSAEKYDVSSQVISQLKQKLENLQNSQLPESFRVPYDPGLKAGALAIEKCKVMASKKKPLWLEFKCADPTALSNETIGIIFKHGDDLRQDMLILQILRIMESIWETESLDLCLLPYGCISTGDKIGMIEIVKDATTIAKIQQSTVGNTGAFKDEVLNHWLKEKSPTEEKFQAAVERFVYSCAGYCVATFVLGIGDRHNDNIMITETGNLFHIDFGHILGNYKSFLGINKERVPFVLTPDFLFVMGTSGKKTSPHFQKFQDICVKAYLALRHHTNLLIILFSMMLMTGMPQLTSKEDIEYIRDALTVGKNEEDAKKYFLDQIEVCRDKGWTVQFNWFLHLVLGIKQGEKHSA
Chain of Phosphatidylinositol 4,5-bisphosphate 3-kinase catalytic subunit beta isoform (P42338 whole entry, canonical isoform): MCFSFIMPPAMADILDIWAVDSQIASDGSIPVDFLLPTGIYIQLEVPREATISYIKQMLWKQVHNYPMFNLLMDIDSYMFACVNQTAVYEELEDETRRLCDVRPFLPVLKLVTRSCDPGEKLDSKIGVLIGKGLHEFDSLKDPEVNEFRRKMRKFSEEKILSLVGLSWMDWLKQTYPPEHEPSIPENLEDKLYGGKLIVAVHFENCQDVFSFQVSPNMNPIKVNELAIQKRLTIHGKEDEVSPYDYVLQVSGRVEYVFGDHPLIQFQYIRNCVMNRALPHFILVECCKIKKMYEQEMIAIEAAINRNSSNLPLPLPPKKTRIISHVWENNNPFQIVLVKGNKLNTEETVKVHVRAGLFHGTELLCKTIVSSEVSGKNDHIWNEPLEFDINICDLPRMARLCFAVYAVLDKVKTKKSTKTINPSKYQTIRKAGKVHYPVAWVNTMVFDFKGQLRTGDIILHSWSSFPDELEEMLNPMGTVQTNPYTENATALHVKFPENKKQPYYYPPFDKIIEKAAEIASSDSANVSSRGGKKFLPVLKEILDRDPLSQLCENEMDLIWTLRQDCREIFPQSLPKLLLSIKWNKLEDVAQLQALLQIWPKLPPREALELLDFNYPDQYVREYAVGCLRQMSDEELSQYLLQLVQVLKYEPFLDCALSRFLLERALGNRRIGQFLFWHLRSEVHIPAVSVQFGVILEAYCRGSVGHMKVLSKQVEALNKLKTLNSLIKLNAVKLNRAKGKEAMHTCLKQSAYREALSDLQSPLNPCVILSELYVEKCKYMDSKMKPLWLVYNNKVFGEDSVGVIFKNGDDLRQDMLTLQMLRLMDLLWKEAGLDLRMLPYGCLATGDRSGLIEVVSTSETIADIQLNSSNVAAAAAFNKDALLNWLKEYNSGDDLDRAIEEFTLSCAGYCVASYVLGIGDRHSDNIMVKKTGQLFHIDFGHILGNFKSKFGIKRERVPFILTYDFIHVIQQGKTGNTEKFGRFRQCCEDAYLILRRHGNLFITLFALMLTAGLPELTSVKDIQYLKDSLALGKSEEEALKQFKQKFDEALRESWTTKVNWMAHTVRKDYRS
Chain of Phosphatidylinositol 4,5-bisphosphate 3-kinase catalytic subunit alpha isoform (P42336 whole entry, canonical isoform): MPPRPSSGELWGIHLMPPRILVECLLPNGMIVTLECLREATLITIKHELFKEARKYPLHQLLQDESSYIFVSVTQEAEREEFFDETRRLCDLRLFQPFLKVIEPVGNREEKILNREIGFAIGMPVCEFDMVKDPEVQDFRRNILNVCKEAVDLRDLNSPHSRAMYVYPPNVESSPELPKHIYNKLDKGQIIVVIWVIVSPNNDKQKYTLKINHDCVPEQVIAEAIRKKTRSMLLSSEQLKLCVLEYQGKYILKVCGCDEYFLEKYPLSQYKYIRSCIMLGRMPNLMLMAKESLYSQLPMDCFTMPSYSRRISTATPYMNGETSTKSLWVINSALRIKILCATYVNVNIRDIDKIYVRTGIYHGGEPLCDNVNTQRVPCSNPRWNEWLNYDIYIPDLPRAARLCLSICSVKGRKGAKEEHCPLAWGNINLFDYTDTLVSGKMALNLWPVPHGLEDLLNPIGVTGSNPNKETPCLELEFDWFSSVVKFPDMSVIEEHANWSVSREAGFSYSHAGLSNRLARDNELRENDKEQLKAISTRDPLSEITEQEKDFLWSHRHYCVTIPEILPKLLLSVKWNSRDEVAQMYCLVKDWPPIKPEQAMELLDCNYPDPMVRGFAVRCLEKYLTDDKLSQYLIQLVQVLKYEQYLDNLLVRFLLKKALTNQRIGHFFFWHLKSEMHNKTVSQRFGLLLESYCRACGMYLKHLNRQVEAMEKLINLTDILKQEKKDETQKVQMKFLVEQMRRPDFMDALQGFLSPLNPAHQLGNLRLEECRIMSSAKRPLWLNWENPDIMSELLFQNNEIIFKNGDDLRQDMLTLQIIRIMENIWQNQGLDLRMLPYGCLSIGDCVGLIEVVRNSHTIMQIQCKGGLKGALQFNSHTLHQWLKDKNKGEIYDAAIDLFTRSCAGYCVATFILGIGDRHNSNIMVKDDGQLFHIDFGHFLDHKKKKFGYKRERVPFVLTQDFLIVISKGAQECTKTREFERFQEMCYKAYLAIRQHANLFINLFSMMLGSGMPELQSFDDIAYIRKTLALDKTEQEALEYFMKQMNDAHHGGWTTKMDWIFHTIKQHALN

What is called EC50 is the midpoint of the concentration-response curve. Lower therefore signals higher potency in that assay. Take `Cn1c(=O)n(-c2ccc(C#N)cc2)c2c3cc(-c4ccncc4)ccc3ncc21`: the TC50 entry in data set [1] is recorded as “ND(Insoluble)”. In data set [2], this compound yielded an EC50 of 72 nM.

One may read the logD as the decadic logarithm of the distribution of all forms, ionised or not, between an organic phase and buffer at a given pH. As a reminder, the kinetic solubility is the concentration staying in solution when a stock, usually in DMSO, is diluted into the medium. In the case of `Cn1c(=O)n(-c2ccc(C(C)(C)C#N)cc2)c2c3cc(-c4cnc5ccccc5c4)ccc3ncc21` [DACTOLISIB], in data set [3], the inhibition result was “inactive”. In addition, the outcome in [4] and in data set [10] was inactive. Also, the inhibition result in [5] and in data set [9] was “Active” each time. In data set [6], the permeability result is on record as “ND(Insoluble)”. For the same compound, the result in data set [7] was Active. For the same compound, the logD in data set [8] worked out at 6.44. Further, the TC50 result in data set [1] is on record as “ND(Insoluble)”. For the same compound, the solubility (kinetic) at 1 h in data set [11] was 19 µM (≈ 8.92 µg/mL).

As a reminder, the IC50 is the point on the concentration scale where inhibition reaches its midpoint. On to `Cc1ccc(-n2c(=O)n(C)c3cnc4ccc(-c5ccncc5)cc4c32)cc1`, for which the inhibition result in data set [3] was “inactive”. Further, the outcome in data set [4] and in data set [10] was inactive. Besides, the IC50 in data set [12] came out at 2510 nM; in data set [13], 631 nM; in data set [15], 31600 nM; in data set [16], 468 nM; in data set [17] it was 251 nM. Also, the inhibition entry in data set [5] and in [9] was “Active” each time. Besides, the permeability in data set [6] came to 47 ×10⁻⁶ cm/s. The outcome in [7] was Active. This compound showed a logD in data set [8] of 4.95. In addition, the CC50 at 48 h in [14] is 4780 nM. It took 202 nM to reach a half-maximal effect in [2] (EC50). Also, the kinetic solubility at 1 h in [11] was 17 µM (≈ 6.23 µg/mL). Besides, in data set [18], the selectivity ratio was 24.

Consider `Cn1c(=O)n(-c2ccc(C(C)(C)C#N)cc2)c2c3ccccc3ncc21`, for which the IC50 is 15800 nM in [12]; 3980 nM in data set [13]; > 30000 nM in [15]; 1620 nM in data set [16]; 2000 nM in data set [17]. In [6], the permeability turned out to be 57 ×10⁻⁶ cm/s. The compound also had a logD in [8] of 4.69. Also, in [14], the CC50 at 48 h was > 50000 nM. In addition, the EC50 in data set [2] amounted to 624 nM. In [18], the selectivity ratio was > 80.

Take `COc1ccc(-n2c(=O)n(C)c3cnc4ccc(-c5ccncc5)cc4c32)cc1`: the inhibition entry in data set [3] is “inactive”. Besides, the outcome in data set [4] and in data set [10] was inactive. In addition, the IC50 was found to be 2510 nM in data set [12]; 501 nM in data set [13]; 7940 nM in [15]; 380 nM in data set [16]; 316 nM in data set [17]. In addition, the inhibition entry in data set [5] and in [9] was “Active” each time. In addition, the permeability in [6] amounted to 86 ×10⁻⁶ cm/s. In addition, the outcome in data set [7] was Active. In [8], this compound showed a logD of 5.32. Besides, in data set [14], the CC50 at 48 h was 11200 nM. In addition, the EC50 in [2] came to 166 nM. In data set [11], this compound returned a kinetic solubility at 1 h of 22 µM (≈ 8.41 µg/mL). Moreover, the selectivity ratio in data set [18] worked out at 67.

In the case of `Cn1cc(-c2ccc3ncc4c(c3c2)n(-c2ccc(C(C)(C)C#N)cc2)c(=O)n4C)cn1`, the inhibition result in data set [3] and in data set [5] was “Active” each time. Moreover, the outcome in data set [4] and in data set [10] was inactive. For the same compound, the concentration for half-maximal inhibition (IC50) amounted to 794 nM in data set [12]; 398 nM in data set [13]; 7940 nM in data set [15]; 1170 nM in [16]; 126 nM in data set [17]. The permeability result in data set [6] was “ND(Insoluble)”. Moreover, the outcome in data set [7] was Active. Besides, in data set [8], the logD worked out at 5.3. This compound also returned a half-maximal effective concentration (EC50) in [2] of 51 nM. In data set [9], the inhibition entry is “inactive”.
